The record followed here is publication PMC7016641, “The Role of Transient Receptor Potential Melastatin 7 (TRPM7) in Cell Viability: A Potential Target to Suppress Breast Cancer Cell Cycle” (Cancers, 2020).

Structures are written as SMILES.

The assay concerns the target T1, TRPM7 (transient receptor potential melastatin 7) (Mus musculus, UniProt Q923J1).
T1 construct: murine TRPM7 (GenBank AF376052) overexpressed in HEK293 (HEK-M7)
Put plainly: whole-cell patch clamp at +[…] mV; Fura-2 Mn2+ quench gave IC50 […]. The assay is classed as cell-based. (The patch-clamp technique gives a direct electrical read-out from membranes.)

T1 sequence (Q923J1 whole entry): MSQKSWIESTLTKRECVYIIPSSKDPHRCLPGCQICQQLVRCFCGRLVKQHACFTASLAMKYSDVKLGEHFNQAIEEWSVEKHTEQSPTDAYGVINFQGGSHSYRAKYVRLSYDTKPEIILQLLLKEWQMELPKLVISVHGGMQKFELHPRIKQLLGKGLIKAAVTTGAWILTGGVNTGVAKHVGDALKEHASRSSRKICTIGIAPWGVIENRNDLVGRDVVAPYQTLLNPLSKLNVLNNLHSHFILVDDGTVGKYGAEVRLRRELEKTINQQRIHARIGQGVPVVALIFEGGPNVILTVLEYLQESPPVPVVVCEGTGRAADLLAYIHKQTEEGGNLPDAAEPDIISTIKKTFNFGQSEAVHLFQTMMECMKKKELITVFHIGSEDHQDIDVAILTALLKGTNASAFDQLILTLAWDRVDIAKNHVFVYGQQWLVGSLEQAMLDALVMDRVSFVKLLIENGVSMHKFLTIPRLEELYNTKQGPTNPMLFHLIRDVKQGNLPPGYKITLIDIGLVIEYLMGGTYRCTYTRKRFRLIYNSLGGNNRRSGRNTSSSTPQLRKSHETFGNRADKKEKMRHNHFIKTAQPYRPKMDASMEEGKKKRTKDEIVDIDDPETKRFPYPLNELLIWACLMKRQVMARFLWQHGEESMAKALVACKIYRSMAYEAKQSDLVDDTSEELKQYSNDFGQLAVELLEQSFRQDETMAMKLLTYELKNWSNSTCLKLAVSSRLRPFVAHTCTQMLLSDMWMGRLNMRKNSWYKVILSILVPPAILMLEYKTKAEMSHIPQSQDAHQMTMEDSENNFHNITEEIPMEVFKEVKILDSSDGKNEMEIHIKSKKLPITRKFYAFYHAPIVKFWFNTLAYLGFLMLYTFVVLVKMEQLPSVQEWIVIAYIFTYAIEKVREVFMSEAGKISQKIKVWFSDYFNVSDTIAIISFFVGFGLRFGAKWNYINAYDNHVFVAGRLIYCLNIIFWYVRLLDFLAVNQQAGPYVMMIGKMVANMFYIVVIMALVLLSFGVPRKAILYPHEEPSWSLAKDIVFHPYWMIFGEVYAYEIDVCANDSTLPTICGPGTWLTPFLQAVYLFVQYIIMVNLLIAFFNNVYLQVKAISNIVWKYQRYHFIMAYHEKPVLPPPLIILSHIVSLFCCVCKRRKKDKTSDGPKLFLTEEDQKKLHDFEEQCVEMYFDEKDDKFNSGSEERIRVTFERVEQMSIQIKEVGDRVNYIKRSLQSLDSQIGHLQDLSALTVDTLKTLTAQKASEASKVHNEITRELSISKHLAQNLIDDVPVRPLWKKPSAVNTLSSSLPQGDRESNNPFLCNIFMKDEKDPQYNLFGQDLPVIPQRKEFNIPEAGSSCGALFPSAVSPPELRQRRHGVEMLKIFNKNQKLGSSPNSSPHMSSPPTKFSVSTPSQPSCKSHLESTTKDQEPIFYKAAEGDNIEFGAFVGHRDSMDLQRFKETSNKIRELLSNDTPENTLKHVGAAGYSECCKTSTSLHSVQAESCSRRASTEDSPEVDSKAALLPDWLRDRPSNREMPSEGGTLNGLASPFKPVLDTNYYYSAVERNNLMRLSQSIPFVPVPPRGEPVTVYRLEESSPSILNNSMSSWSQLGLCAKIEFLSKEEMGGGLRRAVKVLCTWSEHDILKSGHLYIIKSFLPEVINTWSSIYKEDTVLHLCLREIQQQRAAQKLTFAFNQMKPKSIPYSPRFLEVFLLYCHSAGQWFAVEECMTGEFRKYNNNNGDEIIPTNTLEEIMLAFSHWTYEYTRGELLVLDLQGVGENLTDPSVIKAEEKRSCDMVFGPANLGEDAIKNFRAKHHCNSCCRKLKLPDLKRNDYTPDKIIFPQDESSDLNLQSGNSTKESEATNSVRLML

For `NCCOB(c1ccccc1)c1ccccc1` [2-APB, 2-aminoethyl diphenylborinate], the IC50 was determined as 120 ± 16 µM.

As a reminder, the IC50 is the concentration that gives 50% inhibition.
